Assay: xn = mol fraction of the nth substance listed
Conditions: 100 kPa

CCCC[N+]1(C)CCCC1.N#C[C-](C#N)C#N + O
Conditions | electrical conductivity [S/m] | viscosity [mPa·s]
288.15 K, x2 = 0.0718 | 0.723 | 40.02
288.15 K, x2 = 0.1358 | 0.799 | 35.64
288.15 K, x2 = 0.1942 | 0.872 | 32.15
288.15 K, x2 = 0.2886 | 0.993 | 27.21
288.15 K, x2 = 0.3569 | 1.09 | 24.1
288.15 K, x2 = 0.431 | 1.21 | 21.17
288.15 K, x2 = 0.5238 | 1.38 | 17.74
288.15 K, x2 = 0.6162 | 1.55 | 15
288.15 K, x2 = 0.7143 | 1.8 | 12.05
288.15 K, x2 = 0.7708 | 1.9 | 10.98
293.15 K, x2 = 0.0718 | 0.882 | 32.78
293.15 K, x2 = 0.1358 | 0.957 | 29.3
293.15 K, x2 = 0.1942 | 1.04 | 26.51
293.15 K, x2 = 0.2886 | 1.18 | 22.51
293.15 K, x2 = 0.3569 | 1.3 | 20
293.15 K, x2 = 0.431 | 1.44 | 17.55
293.15 K, x2 = 0.5238 | 1.63 | 14.75
293.15 K, x2 = 0.6162 | 1.86 | 12.41
293.15 K, x2 = 0.7143 | 2.14 | 9.96
293.15 K, x2 = 0.7708 | 2.26 | 9.06
298.15 K, x2 = 0.0718 | 1.05 | 27.26
298.15 K, x2 = 0.1358 | 1.13 | 24.45
298.15 K, x2 = 0.1942 | 1.23 | 22.18
298.15 K, x2 = 0.2886 | 1.39 | 18.9
298.15 K, x2 = 0.3569 | 1.52 | 16.78
298.15 K, x2 = 0.431 | 1.69 | 14.76
298.15 K, x2 = 0.5238 | 1.92 | 12.43
298.15 K, x2 = 0.6162 | 2.18 | 10.42
298.15 K, x2 = 0.7143 | 2.52 | 8.36
298.15 K, x2 = 0.7708 | 2.67 | 7.58
303.15 K, x2 = 0.0718 | 1.22 | 22.88
303.15 K, x2 = 0.1358 | 1.32 | 20.68
303.15 K, x2 = 0.1942 | 1.43 | 18.8
303.15 K, x2 = 0.2886 | 1.61 | 16.06
303.15 K, x2 = 0.3569 | 1.76 | 14.28
303.15 K, x2 = 0.431 | 1.96 | 12.58
303.15 K, x2 = 0.5238 | 2.22 | 10.62
303.15 K, x2 = 0.6162 | 2.52 | 8.87
303.15 K, x2 = 0.7143 | 2.93 | 7.1
303.15 K, x2 = 0.7708 | 3.09 | 6.47
308.15 K, x2 = 0.0718 | 1.42 | 19.58
308.15 K, x2 = 0.1358 | 1.53 | 17.69
308.15 K, x2 = 0.1942 | 1.65 | 16.13
308.15 K, x2 = 0.2886 | 1.85 | 13.82
308.15 K, x2 = 0.3569 | 2.03 | 12.3
308.15 K, x2 = 0.431 | 2.22 | 10.84
308.15 K, x2 = 0.5238 | 2.56 | 9.18
308.15 K, x2 = 0.6162 | 2.9 | 7.65
308.15 K, x2 = 0.7143 | 3.35 | 6.11
308.15 K, x2 = 0.7708 | 3.54 | 5.56
313.15 K, x2 = 0.0718 | 1.62 | 16.87
313.15 K, x2 = 0.1358 | 1.74 | 15.26
313.15 K, x2 = 0.1942 | 1.87 | 13.96
313.15 K, x2 = 0.2886 | 2.11 | 12
313.15 K, x2 = 0.3569 | 2.3 | 10.7
313.15 K, x2 = 0.431 | 2.54 | 9.44
313.15 K, x2 = 0.5238 | 2.89 | 8.02
313.15 K, x2 = 0.6162 | 3.28 | 6.68
313.15 K, x2 = 0.7143 | 3.81 | 5.31
313.15 K, x2 = 0.7708 | 4.02 | 4.83
318.15 K, x2 = 0.0718 | 1.84 | 14.68
318.15 K, x2 = 0.1358 | 1.97 | 13.34
318.15 K, x2 = 0.1942 | 2.12 | 12.27
318.15 K, x2 = 0.2886 | 2.37 | 10.52
318.15 K, x2 = 0.3569 | 2.6 | 9.39
318.15 K, x2 = 0.431 | 2.87 | 8.29
318.15 K, x2 = 0.5238 | 3.25 | 7.06
318.15 K, x2 = 0.6162 | 3.7 | 5.83
318.15 K, x2 = 0.7143 | 4.28 | 4.66
318.15 K, x2 = 0.7708 | 4.53 | 4.24
323.15 K, x2 = 0.0718 | 2.07 | 12.88
323.15 K, x2 = 0.1358 | 2.22 | 11.74
323.15 K, x2 = 0.1942 | 2.37 | 10.81
323.15 K, x2 = 0.2886 | 2.66 | 9.3
323.15 K, x2 = 0.3569 | 2.9 | 8.31
323.15 K, x2 = 0.431 | 3.19 | 7.34
323.15 K, x2 = 0.5238 | 3.63 | 6.28
323.15 K, x2 = 0.6162 | 4.12 | 5.16
323.15 K, x2 = 0.7143 | 4.78 | 4.13
323.15 K, x2 = 0.7708 | 5.06 | 3.75
328.15 K, x2 = 0.0718 | 2.31 | 11.39
328.15 K, x2 = 0.1358 | 2.48 | 10.41
328.15 K, x2 = 0.1942 | 2.65 | 9.6
328.15 K, x2 = 0.2886 | 2.96 | 8.28
328.15 K, x2 = 0.3569 | 3.21 | 7.41
328.15 K, x2 = 0.431 | 3.54 | 6.56
328.15 K, x2 = 0.5238 | 4.02 | 5.63
328.15 K, x2 = 0.6162 | 4.57 | 4.61
328.15 K, x2 = 0.7143 | 5.29 | 3.68
328.15 K, x2 = 0.7708 | 5.61 | 3.35
333.15 K, x2 = 0.0718 | 2.58 | 10.14
333.15 K, x2 = 0.1358 | 2.75 | 9.29
333.15 K, x2 = 0.1942 | 2.93 | 8.58
333.15 K, x2 = 0.2886 | 3.27 | 7.42
333.15 K, x2 = 0.3569 | 3.54 | 6.65
333.15 K, x2 = 0.431 | 3.91 | 5.89
333.15 K, x2 = 0.5238 | 4.43 | 5.07
333.15 K, x2 = 0.6162 | 5.01 | 4.15
333.15 K, x2 = 0.7143 | 5.83 | 3.3
333.15 K, x2 = 0.7708 | 6.17 | 3.01
